Results published in PubChem BioAssay AID248 (DTP/NCI, 2004).
“And” between values parts separate entries of the source, which are not always exact repeats. Identical values can stand only once. Toxic doses and inconclusive results are not listed. Cut-off read from the data, not from the text of the source: active = T/C of 150% or more; inactive = T/C below 125%.

Tested on: L1210 leukemia ip in BDF1 mice, survival T/C
Experiment: NCI In Vivo Anticancer Drug Screen. Data for tumor model L1210 Leukemia (intraperitoneal) in B6D2F1 (BDF1) mice
Conditions: endpoint: mean survival time, higher = longer survival
In short: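 Value reflects the ratio of survival in compound-treated mice to survival in vehicle-treated controls, with both groups carrying the same transplanted tumor.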

[1] = dose: 50.0 mg/kg/injection, schedule: Q04DX002 (ip), vehicle: saline
[2] = dose: 100.0 mg/kg/injection, schedule: Q04DX002 (ip), vehicle: saline
[3] = dose: 50.0 mg/kg/injection, schedule: Q01DX001 (ip), vehicle: saline
[4] = dose: 100.0 mg/kg/injection, schedule: Q01DX001 (ip), vehicle: saline
[5] = dose: 100.0 mg/kg/injection, schedule: Q01DX009 (ip), vehicle: saline
[6] = dose: 100.0 mg/kg/injection, schedule: Q04DX003 (ip), vehicle: saline
[7] = dose: 200.0 mg/kg/injection, schedule: Q01DX009 (ip), vehicle: saline
[8] = dose: 200.0 mg/kg/injection, schedule: Q04DX002 (ip), vehicle: saline
[9] = dose: 200.0 mg/kg/injection, schedule: Q04DX003 (ip), vehicle: saline
[10] = dose: 400.0 mg/kg/injection, schedule: Q01DX009 (ip), vehicle: saline
[11] = dose: 400.0 mg/kg/injection, schedule: Q04DX003 (ip), vehicle: saline
[12] = dose: 100.0 mg/kg/injection, schedule: Q04DX003 (ip), vehicle: Klucel (hydroxypropylcellulose) (HPC)
[13] = dose: 200.0 mg/kg/injection, schedule: Q04DX003 (ip), vehicle: Klucel (hydroxypropylcellulose) (HPC)
[14] = dose: 400.0 mg/kg/injection, schedule: Q04DX003 (ip), vehicle: Klucel (hydroxypropylcellulose) (HPC)
[15] = dose: 100.0 mg/kg/injection, schedule: Q01DX009 (ip), vehicle: Klucel (hydroxypropylcellulose) (HPC)
[16] = dose: 200.0 mg/kg/injection, schedule: Q01DX009 (ip), vehicle: Klucel (hydroxypropylcellulose) (HPC)
[17] = dose: 400.0 mg/kg/injection, schedule: Q01DX009 (ip), vehicle: Klucel (hydroxypropylcellulose) (HPC)

Measured: T/C

Nc1ncnc2nc(-c3ccc(-c4ccccc4)cc3)[nH]c12
inactive: dose: 50.0 mg/kg/injection, schedule: Q01DX001 (ip), vehicle: Klucel (hydroxypropylcellulose) (HPC) 92 % of control | dose: 100.0 mg/kg/injection, schedule: Q01DX001 (ip), vehicle: Klucel (hydroxypropylcellulose) (HPC) 88 % of control | dose: 200.0 mg/kg/injection, schedule: Q01DX001 (ip), vehicle: Klucel (hydroxypropylcellulose) (HPC) 97 % of control

CCN(CC)N=Nc1ccc(S(=O)(=O)N(C)C)cc1
inactive: dose: 100.0 mg/kg/injection, schedule: Q04DX002 (ip), vehicle: saline with Tween-80 104 % of control | dose: 200.0 mg/kg/injection, schedule: Q04DX002 (ip), vehicle: saline with Tween-80 97 % of control | dose: 400.0 mg/kg/injection, schedule: Q04DX002 (ip), vehicle: saline with Tween-80 115 % of control

NCC(OCCCc1ccccc1)C(Cl)(Cl)Cl (stereo unspecified)
inactive: dose: 12.5 mg/kg/injection, schedule: Q04DX003 (ip), vehicle: saline with Tween-80 105 % of control | dose: 25.0 mg/kg/injection, schedule: Q01DX009 (ip), vehicle: saline with Tween-80 105 % of control | dose: 25.0 mg/kg/injection, schedule: Q04DX003 (ip), vehicle: saline with Tween-80 105 % of control | dose: 50.0 mg/kg/injection, schedule: Q01DX009 (ip), vehicle: saline with Tween-80 113 % of control | dose: 50.0 mg/kg/injection, schedule: Q04DX003 (ip), vehicle: saline with Tween-80 100 % of control

CC1(C)N=C(SCC(=O)c2ccccc2)NC1(C)C
inactive: dose: 25.0 mg/kg/injection, schedule: Q04DX002 (ip), vehicle: saline 101 % of control | [1] 101 % of control | [2] 101 % of control

CC(=O)c1ccc(-c2ccccc2)cc1
inactive: dose: 100.0 mg/kg/injection, schedule: Q01DX009 (ip), vehicle: saline with Tween-80 91 % of control | dose: 200.0 mg/kg/injection, schedule: Q01DX009 (ip), vehicle: saline with Tween-80 93 % of control | dose: 400.0 mg/kg/injection, schedule: Q01DX009 (ip), vehicle: saline with Tween-80 96 % of control

O=C(/C=C/C(=O)c1ccccc1)c1ccccc1
inactive: dose: 75.0 mg/kg/injection, schedule: Q04DX003 (ip), vehicle: Klucel (hydroxypropylcellulose) (HPC) 98 % of control | dose: 100.0 mg/kg/injection, schedule: Q04DX002 (ip), vehicle: Klucel (hydroxypropylcellulose) (HPC) 98 % of control | dose: 150.0 mg/kg/injection, schedule: Q04DX003 (ip), vehicle: Klucel (hydroxypropylcellulose) (HPC) 97 % of control | dose: 200.0 mg/kg/injection, schedule: Q04DX002 (ip), vehicle: Klucel (hydroxypropylcellulose) (HPC) 106 % of control | dose: 300.0 mg/kg/injection, schedule: Q04DX003 (ip), vehicle: Klucel (hydroxypropylcellulose) (HPC) 104 % of control

C=CCc1cn(C2CC(O)C(CO)O2)c(=O)[nH]c1=O (stereo unspecified)
inactive: [3] 101 % of control | [1] 91 % of control | [4] 100 % of control and 101 % of control and 106 % of control | [5] 98 % of control | [2] 110 % of control | [6] 106 % of control | dose: 115.0 mg/kg/injection, schedule: Q01DX009 (ip), vehicle: saline 104 % of control | dose: 175.0 mg/kg/injection, schedule: Q01DX009 (ip), vehicle: saline 102 % of control | dose: 178.0 mg/kg/injection, schedule: Q01DX015 (ip), vehicle: saline 110 % of control | [7] 109 % of control and 112 % of control | [8] 100 % of control | [9] 95 % of control | dose: 264.0 mg/kg/injection, schedule: Q01DX009 (ip), vehicle: saline 110 % of control | dose: 267.0 mg/kg/injection, schedule: Q01DX015 (ip), vehicle: saline 107 % of control | [10] 115 % of control | dose: 400.0 mg/kg/injection, schedule: Q01DX015 (ip), vehicle: saline 119 % of control | [11] 111 % of control | dose: 600.0 mg/kg/injection, schedule: Q01DX015 (ip), vehicle: saline 121 % of control | dose: 800.0 mg/kg/injection, schedule: Q01DX001 (ip), vehicle: saline 105 % of control | dose: 1600.0 mg/kg/injection, schedule: Q01DX001 (ip), vehicle: saline 110 % of control

COC(=O)c1ccccc1C(=O)O
inactive: dose: 100.0 mg/kg/injection, schedule: Q04DX003 (ip), vehicle: saline with Tween-80 101 % of control | dose: 200.0 mg/kg/injection, schedule: Q04DX003 (ip), vehicle: saline with Tween-80 93 % of control

Cc1cccc(OS(=O)(=O)c2ccccc2[N+](=O)[O-])c1
inactive: dose: 100.0 mg/kg/injection, schedule: Q01DX009 (ip), vehicle: saline sonified 103 % of control | [12] 93 % of control | [13] 96 % of control | dose: 400.0 mg/kg/injection, schedule: Q01DX009 (ip), vehicle: saline sonified 111 % of control | [14] 90 % of control

CCSC(C)C
inactive: [6] 106 % of control | [9] 107 % of control | [11] 102 % of control

Oc1cc2c(cc1O)C1c3ccc(O)c(O)c3OCC1(O)C2 (stereo unspecified)
inactive: [5] 102 % of control | [6] 110 % of control | [7] 104 % of control | [9] 104 % of control | [10] 101 % of control | [11] 102 % of control

CC/[N+]([O-])=C/c1ncc([N+](=O)[O-])n1C
inactive: [2] 114 % of control | [8] 118 % of control | dose: 400.0 mg/kg/injection, schedule: Q04DX002 (ip), vehicle: saline 114 % of control

COc1cc(C)c(Cl)c(C)c1C#CC(=O)O
inactive: dose: 75.0 mg/kg/injection, schedule: Q01DX009 (ip), vehicle: Klucel (hydroxypropylcellulose) (HPC) 101 % of control | dose: 150.0 mg/kg/injection, schedule: Q01DX009 (ip), vehicle: Klucel (hydroxypropylcellulose) (HPC) 100 % of control

C=CC(C)(C)c1c(OC(C)=O)cc2oc3c(OC(C)=O)c(OC(C)=O)cc(CC=C(C)C)c3c(=O)c2c1O
inactive: dose: 100.0 mg/kg/injection, schedule: Q01DX001 (ip), vehicle: carboxymethylcellulose (CMC) 95 % of control | dose: 200.0 mg/kg/injection, schedule: Q01DX001 (ip), vehicle: carboxymethylcellulose (CMC) 92 % of control | dose: 400.0 mg/kg/injection, schedule: Q01DX001 (ip), vehicle: carboxymethylcellulose (CMC) 111 % of control

Cc1ccc(S(C)(=N)=O)cc1 (stereo unspecified)
inactive: [5] 102 % of control | [6] 95 % of control | [7] 100 % of control | [9] 98 % of control | [10] 105 % of control | [11] 98 % of control

COCC(=O)CC(C)=O
inactive: [15] 98 % of control | [12] 100 % of control | [16] 106 % of control | [13] 95 % of control | [17] 101 % of control | [14] 101 % of control

Cc1ccc(Cl)cc1NC(=O)c1ccc(Cl)cc1Cl
inactive: [15] 110 % of control | [12] 92 % of control | [16] 91 % of control | [13] 95 % of control | [17] 89 % of control | [14] 88 % of control

O=P(O)(O)C(Cl)(Cl)Cl
inactive: dose: 50.0 mg/kg/injection, schedule: Q01DX009 (ip), vehicle: saline 100 % of control | [5] 96 % of control | [2] 92 % of control | [7] 96 % of control | [8] 99 % of control

O=c1c(Cl)c(C(Cl)(Cl)Cl)[nH]c2ccc([N+](=O)[O-])cc12
inactive: dose: 25.0 mg/kg/injection, schedule: Q01DX001 (ip), vehicle: saline with Tween-80 101 % of control | dose: 50.0 mg/kg/injection, schedule: Q01DX001 (ip), vehicle: saline with Tween-80 101 % of control

CS(=O)(=O)OCCN(CCOS(C)(=O)=O)c1ccc(/C=N/Nc2ncnc3nc[nH]c23)cc1
inactive: dose: 12.5 mg/kg/injection, schedule: Q01DX009 (ip), vehicle: saline 124 % of control | [3] 119 % of control | dose: 89.0 mg/kg/injection, schedule: Q01DX001 (ip), vehicle: other 105 % of control | [4] 107 % of control | [5] 98 % of control | dose: 133.0 mg/kg/injection, schedule: Q01DX001 (ip), vehicle: other 110 % of control | dose: 200.0 mg/kg/injection, schedule: Q01DX001 (ip), vehicle: other 103 % of control | dose: 200.0 mg/kg/injection, schedule: Q01DX001 (ip), vehicle: saline 119 % of control | dose: 300.0 mg/kg/injection, schedule: Q01DX001 (ip), vehicle: other 114 % of control | dose: 400.0 mg/kg/injection, schedule: Q01DX001 (ip), vehicle: saline 113 % of control
